Here are results for two compounds from US20170008888A1 (KYORIN PHARMACEUTICAL CO., LTD., priority 2014, published 2017).

Test [1] relates to MV-4-11 cells. In words: Combination study with Ara-C in MV-4-11 cells (CellTiter-Glo). It is filed as cell-based, human. Particulars: 48 h. The protocol:
Human biphenotypic B myelomonocytic leukemia MV-4-11 cells (ATCC, Manassas, Va.) treated with test compounds at 2e5 cells/ml in IMDM medium containing 10% (v/v) FBS (Life Technologies, Grand Island, N.Y.) and 1×Pen/Strep Amphotericin B (Lonza, Allendale, N.J.). The final concentration of a test compound was set at a concentration previously determined to be its EC50 and Y3 EC50 values, while the combination test drug (Arabinofuranosyl Cytidine (Ara-C))(Sigma, St. Louis, Mo.) was assayed in serially-diluted 9-point concentrations against this background. Cells were treated for 48 h at 37° C. in a humidified atmosphere at 5% CO2. Cell viability was then determined indirectly via ATP content using the CellTiter-Glo® luminescent cell viability assay (Promega, Madison, Wis.) as per the manufacturer's instructions as follows: Briefly, experimental plates were equilibrated at room temperature for 30 minutes. An equal volume of CellTiter-Glo reagent was added to each well and incubated for 15 minutes at room temperature. Luminescent signal was read using the Wallac 1420 Victor2 multilabel microplate reader (Perkin Elmer, Waltham, Mass.).
(In ATP-based viability assays light output follows the ATP content of the culture.)

In a further test the target is T1, ACK (Homo sapiens, UniProt Q07912).
T1 construct: screened for activity against several kinases in Jurkat cells; endogenous in cells; host or cells: Jurkat cell lysate
The experiment in a line: Probe-based (AX9989) kinase profiling in Jurkat lysate: ACK. It is filed as binding. Particulars: screening concentration 10.0 μM; read-out: Kinase inhibition % at indicated screening concentration: ACK. In outline: (§1)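 Jurkat lysate, HEPES pH 7.5 buffer + 20 mM MnCl2; cpd 15 min RT; AX9989 ATP probe 5 μM final, RT. Trypsin digest, streptavidin capture, LC/MS; % inhibition vs vehicle from labeled-peptide signal.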

The next test concerns ABL or ARG. The experiment in a line: Probe-based (AX9989) kinase profiling in Jurkat lysate: ABL or ARG. The test is classed as binding. Particulars: screening concentration 10.0 μM. In a few lines:
as §1

Test [2] deals with MV-4-11 cells. The experiment in a line: MV-4-11 proliferation EC50 assay (CellTiter-Glo). It is filed as cell-based. Particulars: Homo sapiens, MV4-11, 48 h, read-out: MV-4-11 proliferation EC50, ave. ± S.D. The protocol:
Human biphenotypic B myelomonocytic leukemia MV-4-11 cells (ATCC, Manassas, Va.) were treated with test compounds at 2e5 cells/ml in IMDM medium containing 10% (v/v) FBS (Life Technologies, Grand Island, N.Y.) and 1×Pen/Strep Amphotericin B (Lonza, Allendale, N.J.). Compounds were tested at 25 μM down by ⅓ in a 9 point serial dilution series. Cells were incubated for 48 h at 37° C. in a humidified atmosphere at 5% CO2. MV-4-11 cell proliferation was then indirectly determined via cellular ATP content using the CellTiter-Glo® Luminescent Cell Viability Assay (Promega, Madison, Wis.) as per the manufacturer's instructions. Briefly, experimental plates were equilibrated at room temperature for 30 minutes. An equal volume of CellTiter-Glo® reagent was added to each well and incubated for 15 minutes at room temperature. Luminescent signal was read using the Wallac 1420 Victor^2 multilabel microplate reader (Perkin Elmer, Waltham, Mass.). EC50 values were determined using GraphPad Prism software v5.04.

For the next test, the target named is T2, AurA (Homo sapiens, UniProt O14965).
T2 construct: screened for activity against several kinases in Jurkat cells; endogenous in cells; host or cells: Jurkat cell lysate
T2 sequence (O14965 1-403): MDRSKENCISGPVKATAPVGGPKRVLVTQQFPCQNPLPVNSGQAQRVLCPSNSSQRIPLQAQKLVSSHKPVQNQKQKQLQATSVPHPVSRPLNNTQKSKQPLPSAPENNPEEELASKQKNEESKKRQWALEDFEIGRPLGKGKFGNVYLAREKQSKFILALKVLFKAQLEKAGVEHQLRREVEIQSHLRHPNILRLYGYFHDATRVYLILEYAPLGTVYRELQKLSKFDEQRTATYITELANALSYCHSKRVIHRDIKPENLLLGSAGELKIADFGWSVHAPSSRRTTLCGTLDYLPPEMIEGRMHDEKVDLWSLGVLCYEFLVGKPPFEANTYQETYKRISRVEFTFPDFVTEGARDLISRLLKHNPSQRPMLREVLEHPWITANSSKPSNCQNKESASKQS
In words: Probe-based (AX9989) kinase profiling in Jurkat lysate: AurA. The test is classed as binding. As to conditions: screening concentration 10.0 μM; read-out: Kinase inhibition % at indicated screening concentration: AurA. In outline: as §1

In another test the test system is AMPKa1 or AMPKa2. The experiment in a line: Probe-based (AX9989) kinase profiling in Jurkat lysate: AMPKa1 or AMPKa2. Particulars: screening concentration 10.0 μM. It is filed as binding. In a few lines: as §1
The target of another test is T3, JAK1 (Homo sapiens, UniProt P23458).
T3 construct: screened for activity against several kinases in Jurkat cells; endogenous in cells; host or cells: Jurkat cell lysate
The experiment in a line: Probe-based (AX9989) kinase profiling in Jurkat lysate: JAK1. The test is classed as binding. As to conditions: screening concentration 10.0 μM; read-out: Kinase inhibition % at indicated screening concentration: JAK1. In outline: as §1

The subject of the next test is AurB or AurC. The experiment in a line: Probe-based (AX9989) kinase profiling in Jurkat lysate: AurB or AurC. It is filed as binding. Particulars: screening concentration 10.0 μM. In outline: as §1
The next test deals with T4, TAO2 (Homo sapiens, UniProt Q9UL54).
T4 construct: screened for activity against several kinases in Jurkat cells; endogenous in cells; host or cells: Jurkat cell lysate
T4 sequence (Q9UL54 1-1235): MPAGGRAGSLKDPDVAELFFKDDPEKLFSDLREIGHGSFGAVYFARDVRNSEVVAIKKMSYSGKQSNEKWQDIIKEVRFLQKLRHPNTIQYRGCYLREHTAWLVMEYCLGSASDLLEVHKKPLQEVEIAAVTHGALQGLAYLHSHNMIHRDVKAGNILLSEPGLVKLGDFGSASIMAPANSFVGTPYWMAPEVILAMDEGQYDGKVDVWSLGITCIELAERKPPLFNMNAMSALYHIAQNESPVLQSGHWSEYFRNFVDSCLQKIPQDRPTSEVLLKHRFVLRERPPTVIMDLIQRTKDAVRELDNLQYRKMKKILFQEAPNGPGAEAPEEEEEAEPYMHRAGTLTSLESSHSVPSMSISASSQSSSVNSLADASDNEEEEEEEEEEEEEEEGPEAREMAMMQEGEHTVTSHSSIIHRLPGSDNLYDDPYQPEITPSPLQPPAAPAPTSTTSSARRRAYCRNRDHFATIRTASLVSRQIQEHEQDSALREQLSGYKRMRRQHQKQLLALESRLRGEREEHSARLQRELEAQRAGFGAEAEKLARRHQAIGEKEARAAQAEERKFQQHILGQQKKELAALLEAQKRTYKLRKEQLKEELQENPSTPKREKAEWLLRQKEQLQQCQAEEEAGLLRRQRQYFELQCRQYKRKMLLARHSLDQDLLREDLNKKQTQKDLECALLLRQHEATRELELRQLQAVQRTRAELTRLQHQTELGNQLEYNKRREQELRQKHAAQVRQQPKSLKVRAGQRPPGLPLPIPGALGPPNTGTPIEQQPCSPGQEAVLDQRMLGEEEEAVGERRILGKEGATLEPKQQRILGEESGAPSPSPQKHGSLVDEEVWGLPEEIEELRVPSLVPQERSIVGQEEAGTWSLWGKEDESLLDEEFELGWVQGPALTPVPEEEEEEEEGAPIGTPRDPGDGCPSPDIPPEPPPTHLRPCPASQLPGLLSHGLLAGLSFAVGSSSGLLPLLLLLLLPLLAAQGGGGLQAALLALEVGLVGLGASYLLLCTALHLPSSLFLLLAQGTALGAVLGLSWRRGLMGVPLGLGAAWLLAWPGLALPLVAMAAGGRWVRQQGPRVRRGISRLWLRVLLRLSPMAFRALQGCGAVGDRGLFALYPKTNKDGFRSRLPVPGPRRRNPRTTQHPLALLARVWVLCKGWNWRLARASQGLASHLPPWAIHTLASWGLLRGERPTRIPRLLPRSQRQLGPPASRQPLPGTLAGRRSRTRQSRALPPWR
In words: Probe-based (AX9989) kinase profiling in Jurkat lysate: TAO2. As to conditions: screening concentration 10.0 μM; read-out: Kinase inhibition % at indicated screening concentration: TAO2. The test is classed as binding. In a few lines: as §1

The next test has as its target T5, ERK5 (Homo sapiens, UniProt Q13164).
T5 construct: screened for activity against several kinases in Jurkat cells; endogenous in cells; host or cells: Jurkat cell lysate
In words: Probe-based (AX9989 acyl phosphate ATP probe) kinase profiling in Jurkat lysate: ERK5. It is filed as binding. In a few lines: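 Gel-filtered Jurkat lysate (5 mg/ml, 20 mM MnCl2) preincubated 15 min at room temperature with compound, then labelled with 5 μM AX9989 acyl phosphate ATP probe. Probe-labelled ERK5 active-site peptides quantified by LC/MS after trypsin digestion and streptavidin capture; IC50 calculated from percent inhibition at the screening concentration.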

T5 sequence (Q13164 whole entry): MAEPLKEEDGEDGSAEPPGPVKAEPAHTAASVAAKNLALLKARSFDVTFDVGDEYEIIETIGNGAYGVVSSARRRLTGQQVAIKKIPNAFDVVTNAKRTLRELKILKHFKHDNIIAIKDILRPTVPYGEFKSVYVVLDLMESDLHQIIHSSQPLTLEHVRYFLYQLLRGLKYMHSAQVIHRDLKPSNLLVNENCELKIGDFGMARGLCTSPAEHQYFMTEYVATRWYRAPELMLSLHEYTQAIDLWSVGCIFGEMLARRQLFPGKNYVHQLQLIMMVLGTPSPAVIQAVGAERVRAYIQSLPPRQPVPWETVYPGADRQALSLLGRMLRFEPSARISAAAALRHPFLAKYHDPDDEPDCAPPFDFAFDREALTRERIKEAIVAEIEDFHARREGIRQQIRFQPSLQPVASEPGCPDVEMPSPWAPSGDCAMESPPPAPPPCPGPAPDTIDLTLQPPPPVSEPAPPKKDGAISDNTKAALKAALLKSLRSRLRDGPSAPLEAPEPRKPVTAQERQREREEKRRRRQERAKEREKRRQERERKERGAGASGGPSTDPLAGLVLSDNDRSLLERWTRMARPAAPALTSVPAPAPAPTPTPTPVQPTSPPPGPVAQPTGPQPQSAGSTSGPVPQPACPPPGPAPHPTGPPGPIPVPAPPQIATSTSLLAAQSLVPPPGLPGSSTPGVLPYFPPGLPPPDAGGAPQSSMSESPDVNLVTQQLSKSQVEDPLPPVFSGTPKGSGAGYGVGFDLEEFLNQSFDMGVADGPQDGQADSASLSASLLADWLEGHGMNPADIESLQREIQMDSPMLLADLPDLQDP
T1 sequence (Q07912 whole entry): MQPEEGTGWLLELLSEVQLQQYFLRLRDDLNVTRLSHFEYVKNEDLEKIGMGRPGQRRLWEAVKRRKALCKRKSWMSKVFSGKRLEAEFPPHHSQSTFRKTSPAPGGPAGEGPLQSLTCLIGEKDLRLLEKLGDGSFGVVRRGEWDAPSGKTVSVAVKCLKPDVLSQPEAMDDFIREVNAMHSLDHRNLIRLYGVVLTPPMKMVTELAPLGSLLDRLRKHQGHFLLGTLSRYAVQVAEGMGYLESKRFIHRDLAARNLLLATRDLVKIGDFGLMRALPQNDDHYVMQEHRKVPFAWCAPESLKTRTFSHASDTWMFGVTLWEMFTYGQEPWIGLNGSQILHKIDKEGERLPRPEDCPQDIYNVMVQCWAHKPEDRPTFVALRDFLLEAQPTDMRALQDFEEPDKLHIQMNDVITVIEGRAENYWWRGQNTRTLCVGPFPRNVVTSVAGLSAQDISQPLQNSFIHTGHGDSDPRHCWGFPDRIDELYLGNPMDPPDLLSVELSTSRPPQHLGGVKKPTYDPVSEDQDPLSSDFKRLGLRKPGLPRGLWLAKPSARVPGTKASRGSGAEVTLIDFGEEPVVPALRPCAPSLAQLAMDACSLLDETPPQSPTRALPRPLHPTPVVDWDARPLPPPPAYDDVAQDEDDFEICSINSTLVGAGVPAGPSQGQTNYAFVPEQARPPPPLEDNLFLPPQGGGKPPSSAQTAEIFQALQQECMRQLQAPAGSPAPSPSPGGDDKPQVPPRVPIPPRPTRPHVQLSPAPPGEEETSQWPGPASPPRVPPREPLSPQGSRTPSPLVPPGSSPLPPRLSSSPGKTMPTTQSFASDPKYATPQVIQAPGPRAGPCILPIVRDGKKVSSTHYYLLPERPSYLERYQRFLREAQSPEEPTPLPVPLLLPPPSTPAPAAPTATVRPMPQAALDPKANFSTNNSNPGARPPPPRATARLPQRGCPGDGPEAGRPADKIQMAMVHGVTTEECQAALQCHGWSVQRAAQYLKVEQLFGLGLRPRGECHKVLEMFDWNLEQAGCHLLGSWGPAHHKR
T3 sequence (P23458 whole entry): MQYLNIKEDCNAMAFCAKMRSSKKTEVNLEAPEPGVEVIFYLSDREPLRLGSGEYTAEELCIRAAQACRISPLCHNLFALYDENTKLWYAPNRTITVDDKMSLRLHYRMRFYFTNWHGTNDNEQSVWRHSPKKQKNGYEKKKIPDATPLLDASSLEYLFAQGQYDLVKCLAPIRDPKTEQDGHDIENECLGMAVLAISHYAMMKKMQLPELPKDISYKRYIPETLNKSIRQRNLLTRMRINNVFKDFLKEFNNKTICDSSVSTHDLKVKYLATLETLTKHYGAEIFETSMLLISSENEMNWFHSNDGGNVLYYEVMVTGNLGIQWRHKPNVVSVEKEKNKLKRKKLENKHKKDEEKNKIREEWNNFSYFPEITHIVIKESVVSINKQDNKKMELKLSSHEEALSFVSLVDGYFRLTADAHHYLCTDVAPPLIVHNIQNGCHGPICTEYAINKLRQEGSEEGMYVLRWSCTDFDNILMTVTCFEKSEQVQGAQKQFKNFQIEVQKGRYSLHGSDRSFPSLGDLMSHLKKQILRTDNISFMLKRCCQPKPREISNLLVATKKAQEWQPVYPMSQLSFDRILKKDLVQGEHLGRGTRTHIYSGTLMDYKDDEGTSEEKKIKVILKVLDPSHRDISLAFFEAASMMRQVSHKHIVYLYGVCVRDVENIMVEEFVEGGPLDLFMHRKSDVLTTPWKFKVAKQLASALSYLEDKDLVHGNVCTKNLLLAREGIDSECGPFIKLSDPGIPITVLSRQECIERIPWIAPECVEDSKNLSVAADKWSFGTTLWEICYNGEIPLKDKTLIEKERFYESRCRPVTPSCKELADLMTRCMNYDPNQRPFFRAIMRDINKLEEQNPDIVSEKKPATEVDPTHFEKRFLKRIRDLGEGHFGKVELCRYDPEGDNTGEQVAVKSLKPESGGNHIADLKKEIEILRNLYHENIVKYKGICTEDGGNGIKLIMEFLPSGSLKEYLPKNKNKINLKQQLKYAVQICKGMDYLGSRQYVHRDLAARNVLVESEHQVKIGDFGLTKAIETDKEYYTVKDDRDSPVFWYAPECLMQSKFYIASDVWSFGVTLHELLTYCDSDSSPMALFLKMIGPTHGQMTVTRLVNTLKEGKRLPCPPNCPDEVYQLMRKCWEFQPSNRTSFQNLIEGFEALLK

Regarding `Nc1ccn([C@@H]2O[C@H](CO)[C@@H](O)[C@@H]2O)c(=O)n1` [Ara-C], the EC50 with MV-4-11 cells [1] (read-out: EC50 (μM) of Ara-C in combination with a fixed concentration of compound 61 at EC50) came out at 0.108 µM; in the test with MV-4-11 cells [1] (read-out: EC50 (μM) of Ara-C in combination with a fixed concentration of compound 61 at ⅓ EC50) it was 0.265 µM; in the test with MV-4-11 cells [1] (read-out: EC50 (μM) of Ara-C, compound 61 not present) it was 0.353 µM.

Broadly, the IC50 is the concentration needed to halve the response being measured. In the case of `CN1C(=O)c2ccccc2N(C)c2cc(Nc3ccc(N4CCC(O)CC4)cn3)ncc21` [Compound 4], the inhibition at 10 µM on ACK was 75 to 90%; on AurA it was more than 90%; on JAK1, 50 to 75%; on TAO2, 50 to 75%; at ERK5 (screening concentration 10.0 μM, read-out: Kinase inhibition % at indicated screening concentration: ERK5), 75 to 90%. For the same compound, the “Kinase inhibition % at indicated screening concentration: ABL or ARG” value in the test with ABL or ARG is reported as “C (C is >50% to ≦75%)”. Further, in the test with MV-4-11 cells [2], the EC50 came to 60 nM. Also, the “Kinase inhibition % at indicated screening concentration: AMPKa1 or AMPKa2” value in the test on AMPKa1 or AMPKa2 is listed as “C (C is >50% to ≦75%)”. In addition, the “Kinase inhibition % at indicated screening concentration: AurB or AurC” value in the test with AurB or AurC is “A (A>90%)”. Also, the IC50 at ERK5 (calculated from percent inhibition of AX9989 labeling and the screening concentration, Jurkat lysate) is more than 500 nM.
